These are literature values, as cited in patent publication US12179232B2 (priority 2020, dated 2024).

This data set concerns coronaviruses. To be noted: 0.05-0.2% benzalkonium chloride or 0.02% chlorhexidine digluconate.

For `N=C(NCCCCCCNC(=N)NC(=N)Nc1ccc(Cl)cc1)NC(=N)Nc1ccc(Cl)cc1.O=C(O)[C@H](O)[C@@H](O)[C@H](O)[C@H](O)CO.O=C(O)[C@H](O)[C@@H](O)[C@H](O)[C@H](O)CO` [chlorhexidine digluconate], the “effectiveness of surface inactivation compared with ethanol, hydrogen peroxide, sodium hypochlorite” value is “less effective”.

Consider benzalkonium chloride, for which the “effectiveness of surface inactivation compared with ethanol, hydrogen peroxide, sodium hypochlorite” value is reported as “less effective”.
